In patent US8524635B2, “Antifungal composition” (DSM IP Assets B.V., priority 2006, dated 2013):

What was measured:
[1] = test system: Fusarium oxysporum f. sp. tulipae CBS116591 and Fusarium oxysporum f. sp. tulipae Tu467; test: Tulip bulbs (Prominence) inoculated with mould spores, treated, planted in pots; infection scored at full bloom; format: in vivo; conditions: for % of bulbs infected: average of 60 bulbs, control 100
Procedure: (§1) In this example tulip bulbs of the variety Prominence were treated with a 1:1 mixture of spores of the pathogenic moulds Fusarium oxysporum f. sp. tulipae CBS116591 and Fusarium oxysporum f. sp. tulipae Tu467 by submersing the bulbs for 30 minutes in a suspension containing 50.000-100.000 spores per ml. The mould spores were obtained using well-known methods. It should be noticed that in this challenge test the effect of the compositions was tested under very severe circumstances, because a very high number of mould spores was used. In real practise, the disease pressure will be less severe.
(§2) After the inoculation with mould spores the bulbs were dried following well-known methods. 40-60 minutes after drying the bulbs were treated with the different compositions described in Table 1. The compositions were prepared according to the instructions described on the label. All compositions contained 0.1% (v/v) of the sticking agent Prolong® (Holland Fyto, The Netherlands) and the surfactant Zipper® (Asepta BV, The Netherlands) in a concentration of 1 ml/l. Subsequently, the bulbs were planted in soil in pots (10 bulbs per pot) and incubated under well known standard conditions for growing tulips.
The bulbs were examined for mould infection when the flowers were at full bloom. For each incubation the average observation of 60 bulbs is given. Statistical analysis was performed after an ASIN transformation. The LSD at P=5% was 6.50.

[2] = test system: Fusarium mould; conditions: Example 11 of WO 2004/067699; cited from earlier work
[3] = test system: Helminthosporium solani; test: Seed-potatoes naturally contaminated with silver scurf, sprayed and stored; mould growth and sporulation; format: in vivo
Procedure: Freshly harvested seed-potatoes naturally contaminated with silver scurf were selected for this experiment. The seed-potatoes were treated with the compositions described in Table 4. All compositions contained 0.1% (v/v) of the sticking agent Prolong® (Holland Fyto, The Netherlands) and the surfactant Zipper® (Asepta BV, The Netherlands) in a concentration of 1 ml/l. Said compositions were sprayed on the seed-potatoes using well-known methods after which the seed-potatoes were stored under standard conditions. For each composition 9×25 seed-potatoes were used; of each composition one triple set of seed-potatoes (3×25) was judged visually on mould growth after 1 month of storage (t=1), after 3 months of storage (t=3) and after 6 months of storage (t=6). The mould growth is reported as increase of surface covered with moulds (in percentage). In addition the sporulation of the moulds on the seed-potatoes was examined and scored on a scale from 0 to 4 (0=no sporulation; 4=high sporulation).

[4] = test system: most fungi; conditions: for most fungi; cited from earlier work
[5] = test system: Fusarium oxysporum f. sp. tulipae CBS116591 and Fusarium oxysporum f. sp. tulipae Tu467; test: Tulip bulb treatment as in Example 1, infected bulbs scored and grouped by ANOVA; format: in vivo; conditions: control 90.0, LSD at P=5% 6.50
Procedure: as §1, §2
This example describes the results of an experiment performed as described in Example 1. Just as in the experiment performed in Example 1, the pH of all solutions was adjusted to 5.7 with KOH or K2CO3 which results in a mixture of two phosphites, KH2PO3 and K2HPO3.
The results obtained with a composition comprising 25% of a standard cocktail which is generally applied in practice are included. This standard cocktail contains the commercial products 0.5% (v/v) Captan (546 gram active ingredient per liter), 0.3% (v/v) Prochloraz (450 g/l) and 1% (v/v) Topsin M (500 g/l). The number of infected bulbs was scored and grouped using the well-known statistical method ANOVA (LSD at P=5% was 6.50).

[6] = cited from earlier work
[7] = test system: Fusarium oxysporum; conditions: bulbs dipped two hours at 43.5° C.; Dekker and Langerak (1979); cited from earlier work
[8] = test system: Fusarium oxysporum f. sp. tulipae CBS 116593; test: Wounded tulip bulbs infected after harvest, treated and stored 15 days at 24° C., visual mould growth; format: in vivo; conditions: 15 days storage; for Amount of non-infected bulbs (in %): control 40; for Amount of bulbs with visible moulds (in %): control 60
Text: In this experiment tulip bulbs of the variety Prominence were infected just after harvesting with a spore suspension of Fusarium oxysporum f. sp. tulipae CBS 116593 and treated with the antifungal compositions presented in Table 3. This time, the bulbs were not planted but stored. In this experiment the efficacy of the antifungal composition during the storage of the bulbs was studied.
After harvesting, the outer dry skin of the bulbs was removed and the bulbs were disinfected by applying a treatment with 4% (v/v) Glorix® for 5 minutes. The bulbs were dried and a lesion of a few millimeters was made in the surface of the bulb using a knife. The wound was infected with 15 μl of a spore suspension of Fusarium oxysporum f. sp. tulipae; this way approximately 10.000 mould spores infected the wound after which the bulbs were treated with 30 μl of the compositions described in Table 3. Twenty bulbs were treated per composition. In one experiment the treatment with the antifungal composition was applied 12 hours after infection. The bulbs were incubated for 15 days at a temperature of 24° C. after which the bulbs were examined visually on mould growth.

## C[C@@H]1C/C=C/C=C/C=C/C=C/[C@H](O[C@@H]2O[C@H](C)[C@@H](O)[C@H](N)[C@@H]2O)C[C@@H]2O[C@](O)(C[C@@H](O)C[C@H]3O[C@@H]3/C=C/C(=O)O1)C[C@H](O)[C@H]2C(=O)O [natamycin]
[1]; natamycin 0.2 g/l
  % of bulbs infected: 88%
[1]; natamycin 0.5 g/l
  % of bulbs infected: 90%
[2]
  yellow mould spots on leaves growing from treated tulip bulbs (in words): some yellow spots
[3]; natamycin 2000 ppm, t = 1 (1 month of storage), water control 3.8
  Increase in percentage of the surface of seed-potatoes covered with mould: 1.5%
[3]; natamycin 2000 ppm, t = 1, scale 0 to 4, water control 2.7
  Sporulation of silver scurf moulds on seed potatoes: 0.8
[3]; natamycin 2000 ppm, t = 3 (3 months of storage), water control 3.4
  Increase in percentage of the surface of seed-potatoes covered with mould: 3.0%
[3]; natamycin 2000 ppm, t = 3, scale 0 to 4, water control 1.8
  Sporulation of silver scurf moulds on seed potatoes: 1.1
[3]; natamycin 2000 ppm, t = 6 (6 months of storage), water control 7.8
  Increase in percentage of the surface of seed-potatoes covered with mould: 3.8%
[3]; natamycin 2000 ppm, t = 6, scale 0 to 4, water control 2.4
  Sporulation of silver scurf moulds on seed potatoes: 1.8
[3]; natamycin 5000 ppm, t = 1 (1 month of storage), water control 3.8
  Increase in percentage of the surface of seed-potatoes covered with mould: 0.8%
[3]; natamycin 5000 ppm, t = 1, scale 0 to 4, water control 2.7
  Sporulation of silver scurf moulds on seed potatoes: 0.6
[3]; natamycin 5000 ppm, t = 3 (3 months of storage), water control 3.4
  Increase in percentage of the surface of seed-potatoes covered with mould: 2.6%
[3]; natamycin 5000 ppm, t = 3, scale 0 to 4, water control 1.8
  Sporulation of silver scurf moulds on seed potatoes: 1.2
[3]; natamycin 5000 ppm, t = 6 (6 months of storage), water control 7.8
  Increase in percentage of the surface of seed-potatoes covered with mould: 3.5%
[3]; natamycin 5000 ppm, t = 6, scale 0 to 4, water control 2.4
  Sporulation of silver scurf moulds on seed potatoes: 0.7
[4]
  MIC (Minimal Inhibitory Concentration): less than 10 ppm
[5]; 200 ppm natamycin
  Score (mould infection of tulip bulbs): 76.0
[5]; 500 ppm natamycin
  Score (mould infection of tulip bulbs): 75.0
[6]
  solubility in water: 30-50 ppm
[7]
  preventing the spread of Fusarium oxysporum in the water baths (in words): as effective as organic mercury or formalin
[8]; 500 ppm natamycin
  Amount of non-infected bulbs (in %): 60%
  Amount of bulbs with visible moulds (in %): 40%

## copper lignosulphonate
[1]; conclusion from Table 1
  effect on mould infection of tulip bulbs (in words): did not lead to reduction of moulds
[1]; copper lignosulphonate 2 g/l
  % of bulbs infected: 97%

## potassium phosphite
[1]; potassium phosphite 20 g/l
  % of bulbs infected: 87%
[3]; phosphite 120 mM, t = 1 (1 month of storage), water control 3.8
  Increase in percentage of the surface of seed-potatoes covered with mould: 2.5%
[3]; phosphite 120 mM, t = 1, scale 0 to 4 (0=no sporulation; 4=high sporulation), water control 2.7
  Sporulation of silver scurf moulds on seed potatoes: 1.3
[3]; phosphite 120 mM, t = 3 (3 months of storage), water control 3.4
  Increase in percentage of the surface of seed-potatoes covered with mould: 4.0%
[3]; phosphite 120 mM, t = 3, scale 0 to 4, water control 1.8
  Sporulation of silver scurf moulds on seed potatoes: 1.0
[3]; phosphite 120 mM, t = 6 (6 months of storage), water control 7.8
  Increase in percentage of the surface of seed-potatoes covered with mould: 6.9%
[3]; phosphite 120 mM, t = 6, scale 0 to 4, water control 2.4
  Sporulation of silver scurf moulds on seed potatoes: 1.3
[5]; 120 mM phosphite, pH 5.7
  Score (mould infection of tulip bulbs): 72.9
[8]; 120 mM phosphite
  Amount of non-infected bulbs (in %): 50%
  Amount of bulbs with visible moulds (in %): 50%
